Test results published in the supplement of paper PMC10307832.

Columns and labels:
Experiment in all cases: relative viability (nuclei count vs DMSO), 5 days (fraction); higher = more cells survive
IDH-C35 + Olaparib = compound: Cc1ccccc1C(C(=O)NC1CCCCC1)N(C(=O)Cn1ccnc1C)c1cccc(F)c1 [IDH-C35] + O=C(c1cc(Cc2n[nH]c(=O)c3ccccc23)ccc1F)N1CCN(C(=O)C2CC2)CC1 [Olaparib] (partner 8 µM)
Method in brief: (§1)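 Values are medians from duplicate plates. Each reflects relative viability, defined as the nuclei count of treated wells over that of vehicle wells. Lung cancer cell lines in 1536-well plates were pin-tool dosed one day after seeding with one drug alone or with a fixed anchor-drug dose plus five library-drug doses (not always all listed) in √10 steps, then fixed, stained and imaged at 4× after 5 days.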

[1] = compound: CC1=C(C(=NN1)C)CC2=C(C3=C(S2)N(C(=O)N(C3=O)C)CC(C)C)C(=O)N4C[C@@H](CO4)O + COc1cc2c(Oc3ccc(NC(=O)C4(C(=O)Nc5ccc(F)cc5)CC4)cc3F)ccnc2cc1OCCCN1CCOCC1 [Foretinib] (partner 0.25 µM)
Method in brief: as §1

[2] = compound: CC1=C(C(=NN1)C)CC2=C(C3=C(S2)N(C(=O)N(C3=O)C)CC(C)C)C(=O)N4C[C@@H](CO4)O + CS(=O)(=O)CCNCc1ccc(-c2ccc3ncnc(Nc4ccc(OCc5cccc(F)c5)c(Cl)c4)c3c2)o1 [Lapatinib] (partner 2 µM)
Method in brief: as §1

IDH-C35 + Dasatinib = compound: Cc1ccccc1C(C(=O)NC1CCCCC1)N(C(=O)Cn1ccnc1C)c1cccc(F)c1 [IDH-C35] + Cc1nc(Nc2ncc(C(=O)Nc3c(C)cccc3Cl)s2)cc(N2CCN(CCO)CC2)n1 [Dasatinib] (partner 0.075 µM)
Method in brief: as §1

## UMC-11
IDH-C35 + Olaparib; first compound 0.08 µM
  relative viability: 0.383
IDH-C35 + Olaparib; first compound 0.253 µM
  relative viability: 0.366
IDH-C35 + Olaparib; first compound 0.8 µM
  relative viability: 0.402
IDH-C35 + Olaparib; first compound 2.53 µM
  relative viability: 0.382
IDH-C35 + Olaparib; first compound 8 µM
  relative viability: 0.445
[1]; first compound 0.0025 µM
  relative viability: 1.16
[1]; first compound 0.007906 µM
  relative viability: 1.17
[1]; first compound 0.025 µM
  relative viability: 0.997
[1]; first compound 0.07906 µM
  relative viability: 1.07
[1]; first compound 0.25 µM
  relative viability: 1.08
[2]; first compound 0.0025 µM
  relative viability: 1.12
[2]; first compound 0.007906 µM
  relative viability: 1.03
[2]; first compound 0.025 µM
  relative viability: 0.957
[2]; first compound 0.07906 µM
  relative viability: 1.01
[2]; first compound 0.25 µM
  relative viability: 1.05
IDH-C35 + Dasatinib; first compound 0.08 µM
  relative viability: 0.416
IDH-C35 + Dasatinib; first compound 0.253 µM
  relative viability: 0.472
IDH-C35 + Dasatinib; first compound 0.8 µM
  relative viability: 0.474
IDH-C35 + Dasatinib; first compound 2.53 µM
  relative viability: 0.532
IDH-C35 + Dasatinib; first compound 8 µM
  relative viability: 0.443
